The values below are quoted from earlier work in patent publication US20070020197A1, “Preparation of pharmaceutical compositions containing nanoparticles” (WARNER-LAMBERT COMPANY LLC, priority 2004, published 2007).

Molecules are shown by their SMILES.

For this series the following is noted: mean particle size reduced from 4.15 μm to 0.45 μm.

As to `O=C(NC(=O)c1ccccc1[N+](=O)[O-])Nc1ccc(Oc2ncc(Br)cn2)c(Cl)c1` [HO-221], the bioavailability change entry is on record as “doubling”.
